Results from ChEMBL document CHEMBL1147603, “Fluoropyrrolidine amides as dipeptidyl peptidase IV inhibitors” (Bioorg Med Chem Lett, 2004).

What was measured:
[1] = (§1) Volume of distribution at steady state was determined after 1 mg/kg (i.v.) / 2 mg/kg (p.o.) of compound administration; format: ADME, organism-based; settings: rat, in vivo, iv, read-out: Vdss
[2] = (§2) Plasma clearance was determined after 1 mg/kg (i.v.) / 2 mg/kg (p.o.) of compound administration; format: ADME, organism-based; settings: rat, iv, read-out: Clp
[3] = as §2; format: ADME, organism-based, Canis lupus familiaris; settings: dog, iv, read-out: Clp
[4] = (§3) Maximum plasma concentration reached by compound was determined after 2 mg/kg (p.o.) administration; format: ADME, organism-based; parameters: dose 2 mg/kg, route oral; settings: rat, po
[5] = (§4) Half-life period was determined after 1 mg/kg (i.v.) / 2 mg/kg (p.o.) of compound administration; format: ADME, organism-based; settings: rat, in vivo
[6] = as §3; format: ADME, organism-based, Canis lupus familiaris; parameters: dose 2 mg/kg, route oral; settings: dog, po
[7] = as §1; format: ADME, organism-based, Canis lupus familiaris; settings: dog, in vivo, iv, read-out: Vdss
[8] = as §4; format: ADME, organism-based, Canis lupus familiaris; settings: dog, in vivo

Vd [1]: 2.5 L/kg | clearance [2]: 24 mL/min/kg | clearance [3]: 9.1 mL/min/kg | Cmax [4]: 400 nM | half-life [5]: 1.6 h | Cmax [6]: 1000 nM | Vd [7]: 4.4 L/kg | half-life [8]: 5.9 h
Structure (SMILES): N[C@H](C(=O)N1CC[C@H](F)C1)[C@H]1CC[C@H](NS(=O)(=O)c2ccc(F)cc2F)CC1
